Measurements published in patent publication US20240409585A1, “MACROCYCLIC IMMUNOMODULATORS” (priority 2021, published 2024).
Bridge positions count the residues as written; N and C are the ends. Square brackets hold non-standard residues; d marks the D form. Peptide text beside a SMILES is read from it. * marks the point of attachment. ξ: configuration not given here. Phe(4-COOH) = N[C@@H](Cc1ccc(C(=O)O)cc1)C(=O)O; Bip = N[C@@H](Cc1ccc(-c2ccccc2)cc1)C(=O)O; Phe(3-Me) = Cc1cccc(C[C@H](N)C(=O)O)c1; 4Pal = N[C@@H](Cc1ccncc1)C(=O)O; Carboxymethyl = O=C(O)C*; NMeA = CN[C@@H](C)C(=O)O; Dap = NC[C@H](N)C(=O)O; ξC = NC(CS)C(=O)O

The molecules below were run against T1, PE-labeled human PD-L1-Ig binding to Jurkat cell line over-expressing human PD-1 (Jurkat-PD-1) (Homo sapiens, UniProt Q15116) (assay: Jurkat-PD-1 Cell Binding High-Content Screening Assay (CBA): Method 1). Conditions: Jurkat HPDL1 PD1 IC50 (uM) (Method 1), Jurkat-hPD-1 cells, PE-labeled PD-L1-Ig 20 nM final.
T1 construct: expressed in transfected cells; host or cells: Jurkat
T1 sequence (Q15116 25-288): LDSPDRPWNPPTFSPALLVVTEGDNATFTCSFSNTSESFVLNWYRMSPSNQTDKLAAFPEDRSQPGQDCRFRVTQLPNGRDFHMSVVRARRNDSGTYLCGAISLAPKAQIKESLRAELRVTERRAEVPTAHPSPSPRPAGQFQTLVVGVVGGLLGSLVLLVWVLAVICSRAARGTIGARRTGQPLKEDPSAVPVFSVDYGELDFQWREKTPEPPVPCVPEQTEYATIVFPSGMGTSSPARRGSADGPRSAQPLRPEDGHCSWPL

Row | SMILES | IC50
1 | Cc1cccc(C[C@@H]2NC(=O)[C@H](CC(=O)O)NC(=O)[C@H](Cc3ccc(OCC(=O)O)cc3)NC(=O)[C@H](CN)NC(=O)CSC[C@@H](C(=O)N[C@@H](C)C(N)=O)NC(=O)[C@H](CO)NC(=O)[C@H](Cc3ccccc3)NC(=O)[C@H](CC(C)C)NC(=O)[C@H](CC(N)=O)NC(=O)[C@@H](CC(C)C)NC(=O)[C@H](C)N(C)C(=O)[C@H](Cc3ccccc3)NC(=O)[C@H](Cc3ccc(-c4ccccc4)cc3)NC(=O)[C@H](CC(C)C)NC2=O)c1 [Compound 1586] ({CH2CO}-[Dap]Y(Carboxymethyl)D[Phe(3-Me)]L[Bip]F[NMeA][dL]NLFSCA-NH2; thioether N-14) | 0.54 µM
2 | Cc1cccc(C[C@@H]2NC(=O)[C@H](CC(=O)O)NC(=O)[C@H](Cc3ccc(OCC(=O)O)cc3)NC(=O)[C@H](Cc3ccncc3)NC(=O)CSC[C@@H](C(=O)N[C@@H](C)C(N)=O)NC(=O)[C@H](CO)NC(=O)[C@H](Cc3ccccc3)NC(=O)[C@H](CC(C)C)NC(=O)[C@H](CC(N)=O)NC(=O)[C@@H](CC(C)C)NC(=O)[C@H](C)N(C)C(=O)[C@H](Cc3ccccc3)NC(=O)[C@H](Cc3ccc(-c4ccccc4)cc3)NC(=O)[C@H](CC(C)C)NC2=O)c1 [Compound 1588] ({CH2CO}-[4Pal]Y(Carboxymethyl)D[Phe(3-Me)]L[Bip]F[NMeA][dL]NLFSCA-NH2; thioether N-14) | 0.32 µM
3 | Cc1cccc(C[C@@H]2NC(=O)[C@H](CC(=O)O)NC(=O)[C@H](Cc3ccccc3)NC(=O)[C@H](CN)NC(=O)CSC[C@@H](C(=O)N[C@@H](C)C(N)=O)NC(=O)[C@H](CO)NC(=O)[C@H](Cc3ccccc3)NC(=O)[C@H](CC(C)C)NC(=O)[C@H](CC(N)=O)NC(=O)[C@@H](CC(C)C)NC(=O)[C@H](C)N(C)C(=O)[C@H](Cc3ccccc3)NC(=O)[C@H](Cc3ccc(-c4ccccc4)cc3)NC(=O)[C@H](CC(C)C)NC2=O)c1 [Compound 1594] ({CH2CO}-[Dap]FD[Phe(3-Me)]L[Bip]F[NMeA][dL]NLFSCA-NH2; thioether N-14) | 0.01 µM

Same assay, conditions: Jurkat-hPD-1 cells, PE-labeled PD-L1-Ig 20 nM final; read-out: Jurkat HPDL1 PD1 IC50 (uM) (Method 1)

Row | SMILES | IC50
4 | Cc1cccc(C[C@@H]2NC(=O)[C@H](CC(=O)O)NC(=O)[C@H](Cc3ccc(OCC(=O)O)cc3)NC(=O)[C@H](Cc3ccc(OCC(=O)O)cc3)NC(=O)CSC[C@@H](C(=O)N[C@@H](C)C(N)=O)NC(=O)[C@H](CO)NC(=O)[C@H](Cc3ccccc3)NC(=O)[C@H](CC(C)C)NC(=O)[C@H](CC(N)=O)NC(=O)[C@@H](CC(C)C)NC(=O)[C@H](C)N(C)C(=O)[C@H](Cc3ccccc3)NC(=O)[C@H](Cc3ccc(-c4ccccc4)cc3)NC(=O)[C@H](CC(C)C)NC2=O)c1 [Compound 1587] ({CH2CO}-Y(Carboxymethyl)Y(Carboxymethyl)D[Phe(3-Me)]L[Bip]F[NMeA][dL]NLFSCA-NH2; thioether N-14) | 0.7 µM
5 | Cc1cccc(C[C@@H]2NC(=O)[C@H](CC(=O)O)NC(=O)[C@H](Cc3ccncc3)NC(=O)[C@H](Cc3ccc(OCC(=O)O)cc3)NC(=O)CSC[C@@H](C(=O)N[C@@H](C)C(N)=O)NC(=O)[C@H](CO)NC(=O)[C@H](C(C)C)NC(=O)[C@H](CC(C)C)NC(=O)[C@H](CC(N)=O)NC(=O)[C@@H](CC(C)C)NC(=O)[C@H](C)N(C)C(=O)[C@H](C(C)C)NC(=O)[C@H](Cc3ccc(-c4ccccc4)cc3)NC(=O)[C@H](CC(C)C)NC2=O)c1 [Compound 1589] ({CH2CO}-Y(Carboxymethyl)[4Pal]D[Phe(3-Me)]L[Bip]V[NMeA][dL]NLVSCA-NH2; thioether N-14) | 0.03 µM
6 | CC(C)C[C@@H]1NC(=O)[C@H](Cc2c[nH]c3ccccc23)NC(=O)[C@H](CC(=O)O)NC(=O)[C@H](Cc2ccncc2)NC(=O)[C@H](Cc2ccc(OCC(=O)O)cc2)NC(=O)CSC[C@@H](C(=O)N[C@@H](C)C(N)=O)NC(=O)[C@H](CO)NC(=O)[C@H](C(C)C)NC(=O)[C@H](CC(C)C)NC(=O)[C@H](CC(N)=O)NC(=O)[C@@H](CC(C)C)NC(=O)[C@H](C)N(C)C(=O)[C@H](C(C)C)NC(=O)[C@H](Cc2ccc(-c3ccccc3)cc2)NC1=O [Compound 1591] ({CH2CO}-Y(Carboxymethyl)[4Pal]DWL[Bip]V[NMeA][dL]NLVSCA-NH2; thioether N-14) | 0.03 µM
7 | Cc1cccc(C[C@@H]2NC(=O)[C@H](CC(=O)O)NC(=O)[C@H](Cc3ccc(C(=O)O)cc3)NC(=O)[C@H](Cc3ccc(OCC(=O)O)cc3)NC(=O)CSC[C@@H](C(N)=O)NC(=O)[C@H](CO)NC(=O)[C@H](C(C)C)NC(=O)[C@H](CC(C)C)NC(=O)[C@H](CC(N)=O)NC(=O)[C@@H](CC(C)C)NC(=O)[C@H](C)N(C)C(=O)[C@H](C(C)C)NC(=O)[C@H](Cc3ccc(-c4ccccc4)cc3)NC(=O)[C@H](CC(C)C)NC2=O)c1 [Compound 1596] ({CH2CO}-Y(Carboxymethyl)[Phe(4-COOH)]D[Phe(3-Me)]L[Bip]V[NMeA][dL]NLVSC-NH2; thioether N-14) | 0.02 µM
8 | Cc1cccc(C[C@@H]2NC(=O)[C@H](CC(=O)O)NC(=O)[C@H](Cc3ccc(OCC(=O)O)cc3)NC(=O)[C@H](CN)NC(=O)CSCC(C(N)=O)NC(=O)[C@H](CO)NC(=O)[C@H](C(C)C)NC(=O)[C@H](CC(C)C)NC(=O)[C@H](CC(N)=O)NC(=O)[C@@H](CC(C)C)NC(=O)[C@H](C)N(C)C(=O)[C@H](C(C)C)NC(=O)[C@H](Cc3ccc(-c4ccccc4)cc3)NC(=O)[C@H](CC(C)C)NC2=O)c1 (stereo partly drawn) [Compound 1597] ({CH2CO}-[Dap]Y(Carboxymethyl)D[Phe(3-Me)]L[Bip]V[NMeA][dL]NLVS[ξC]-NH2; thioether N-14) | 0.05 µM
9 | Cc1cccc(C[C@@H]2NC(=O)[C@H](CC(=O)O)NC(=O)[C@H](Cc3ccncc3)NC(=O)[C@H](Cc3ccc(OCC(=O)O)cc3)NC(=O)CSC[C@@H](C(=O)N[C@@H](CC(=O)O)C(N)=O)NC(=O)[C@H](CO)NC(=O)[C@H](C(C)C)NC(=O)[C@H](CC(C)C)NC(=O)[C@H](CC(N)=O)NC(=O)[C@@H](CC(C)C)NC(=O)[C@H](C)N(C)C(=O)[C@H](C(C)C)NC(=O)[C@H](Cc3ccc(-c4ccccc4)cc3)NC(=O)[C@H](CC(C)C)NC2=O)c1 [Compound 1601] ({CH2CO}-Y(Carboxymethyl)[4Pal]D[Phe(3-Me)]L[Bip]V[NMeA][dL]NLVSCD-NH2; thioether N-14) | 0.02 µM
10 | Cc1cccc(C[C@@H]2NC(=O)[C@H](CC(=O)O)NC(=O)[C@H](Cc3ccc(C(=O)O)cc3)NC(=O)[C@H](Cc3ccc(OCC(=O)O)cc3)NC(=O)CSC[C@@H](C(=O)N[C@@H](CCC(=O)O)C(N)=O)NC(=O)[C@H](CO)NC(=O)[C@H](C(C)C)NC(=O)[C@H](CC(C)C)NC(=O)[C@H](CC(N)=O)NC(=O)[C@@H](CC(C)C)NC(=O)[C@H](C)N(C)C(=O)[C@H](C(C)C)NC(=O)[C@H](Cc3ccc(-c4ccccc4)cc3)NC(=O)[C@H](CC(C)C)NC2=O)c1 [Compound 1604] ({CH2CO}-Y(Carboxymethyl)[Phe(4-COOH)]D[Phe(3-Me)]L[Bip]V[NMeA][dL]NLVSCE-NH2; thioether N-14) | 0.01 µM

Other lines, results leading:

Row | IC50 | SMILES
11 | 0.01 µM | CC(C)C[C@@H]1NC(=O)[C@H](Cc2c[nH]c3ccccc23)NC(=O)[C@H](CC(=O)O)NC(=O)[C@H](Cc2ccc(OCC(=O)O)cc2)NC(=O)[C@H](Cc2ccncc2)NC(=O)CSC[C@@H](C(=O)N[C@@H](C)C(N)=O)NC(=O)[C@H](CO)NC(=O)[C@H](C(C)C)NC(=O)[C@H](CC(C)C)NC(=O)[C@H](CC(N)=O)NC(=O)[C@@H](CC(C)C)NC(=O)[C@H](C)N(C)C(=O)[C@H](C(C)C)NC(=O)[C@H](Cc2ccc(-c3ccccc3)cc2)NC1=O [Compound 1592] ({CH2CO}-[4Pal]Y(Carboxymethyl)DWL[Bip]V[NMeA][dL]NLVSCA-NH2; thioether N-14)
12 | 0.01 µM | Cc1cccc(C[C@@H]2NC(=O)[C@H](CC(=O)O)NC(=O)[C@H](Cc3ccncc3)NC(=O)[C@H](Cc3ccc(OCC(=O)O)cc3)NC(=O)CSC[C@@H](C(N)=O)NC(=O)[C@H](CO)NC(=O)[C@H](C(C)C)NC(=O)[C@H](CC(C)C)NC(=O)[C@H](CC(N)=O)NC(=O)[C@@H](CC(C)C)NC(=O)[C@H](C)N(C)C(=O)[C@H](C(C)C)NC(=O)[C@H](Cc3ccc(-c4ccccc4)cc3)NC(=O)[C@H](CC(C)C)NC2=O)c1 [Compound 1595] ({CH2CO}-Y(Carboxymethyl)[4Pal]D[Phe(3-Me)]L[Bip]V[NMeA][dL]NLVSC-NH2; thioether N-14)
13 | 0.01 µM | Cc1cccc(C[C@@H]2NC(=O)[C@H](CC(=O)O)NC(=O)[C@H](Cc3ccncc3)NC(=O)[C@H](CN)NC(=O)CSC[C@@H](C(N)=O)NC(=O)[C@H](CO)NC(=O)[C@H](C(C)C)NC(=O)[C@H](CC(C)C)NC(=O)[C@H](CC(N)=O)NC(=O)[C@@H](CC(C)C)NC(=O)[C@H](C)N(C)C(=O)[C@H](C(C)C)NC(=O)[C@H](Cc3ccc(-c4ccccc4)cc3)NC(=O)[C@H](CC(C)C)NC2=O)c1 [Compound 1598] ({CH2CO}-[Dap][4Pal]D[Phe(3-Me)]L[Bip]V[NMeA][dL]NLVSC-NH2; thioether N-14)
14 | 0.01 µM | Cc1cccc(C[C@@H]2NC(=O)[C@H](CC(=O)O)NC(=O)[C@H](Cc3ccc(C(=O)O)cc3)NC(=O)[C@H](Cc3ccc(OCC(=O)O)cc3)NC(=O)CSC[C@@H](C(=O)N[C@@H](CC(=O)O)C(N)=O)NC(=O)[C@H](CO)NC(=O)[C@H](C(C)C)NC(=O)[C@H](CC(C)C)NC(=O)[C@H](CC(N)=O)NC(=O)[C@@H](CC(C)C)NC(=O)[C@H](C)N(C)C(=O)[C@H](C(C)C)NC(=O)[C@H](Cc3ccc(-c4ccccc4)cc3)NC(=O)[C@H](CC(C)C)NC2=O)c1 [Compound 1602] ({CH2CO}-Y(Carboxymethyl)[Phe(4-COOH)]D[Phe(3-Me)]L[Bip]V[NMeA][dL]NLVSCD-NH2; thioether N-14)
15 | 0.01 µM | Cc1cccc(C[C@@H]2NC(=O)[C@H](CC(=O)O)NC(=O)[C@H](Cc3ccncc3)NC(=O)[C@H](Cc3ccc(OCC(=O)O)cc3)NC(=O)CSC[C@@H](C(=O)N[C@@H](CCC(=O)O)C(N)=O)NC(=O)[C@H](CO)NC(=O)[C@H](C(C)C)NC(=O)[C@H](CC(C)C)NC(=O)[C@H](CC(N)=O)NC(=O)[C@@H](CC(C)C)NC(=O)[C@H](C)N(C)C(=O)[C@H](C(C)C)NC(=O)[C@H](Cc3ccc(-c4ccccc4)cc3)NC(=O)[C@H](CC(C)C)NC2=O)c1 [Compound 1603] ({CH2CO}-Y(Carboxymethyl)[4Pal]D[Phe(3-Me)]L[Bip]V[NMeA][dL]NLVSCE-NH2; thioether N-14)
